According to patent US10392379B2, “Hepatitis B core protein modulators” (Assembly Biosciences, Inc., priority 2015, dated 2019):

How the values were obtained:
AD38 cells = test: Viability of AD38 cells (Promega CellTiter-Glo); format: cell-based; conditions: 10 μM compound, 6 days, DMSO controls = 100%
Procedure: (§1) AD38 cells were then re-suspended with 10 mL of Treatment Medium and counted. Wells of a collagen coated 96-well NUNC microtiter plate were seeded at 50,000/well in 180 μL of Treatment Medium, and 20 μL of in treatment media with either 10% DMSO (Control) or a 10× solution of compound in 10% DMSO was added. Plates were incubated for 6 days at 37° C.
At the end of compound treatment period cell viability was assessed using a Promega CellTiter-Glo protocol. All supernatant was removed the previously treated 96-well microtiter plate, and 50 μL Tetracycline-free treatment medium (DMEM/F12 (1:1), 1× Pen/step (cat#: 30-002-CL, Mediatech, Inc), with 2% FBS, Tet-system approved (cat#: 631106, Clontech), and 1% DMSO was added back to each well. Another 50 μL of CellTiter-Glo reagent solution (Promega, G7573) was then added at room temperature and the contents mixed for 2 minutes on an orbital shaker to induce cell lysis. This was followed by incubation at room temperature for 10 minutes to stabilize the luminescent signal. The luminescence was recorded for 0.2 seconds per well on a Tecan multimode platereader (Infinite M1000 pro). The luminescent signal from each well was normalized against that of untreated (DMSO) control wells. All results in Table 3 were reported with percent viability (with controls being 100%).

HBV = test: Viral load production in AD38 cells by quantitative PCR of the core sequence; format: cell-based; conditions: Hepatitis B virus, 144 h, 10 μM compound, 6 days, supernatant qPCR, relative to DMSO control, read-out: AD38 Viral Load (%) (VL with cmpd/VL in DMSO control) at 10 μM
Procedure: as §1
Viral load production was assayed by quantitative PCR of the core sequence. […] The PCR mixture was incubated at 45° C. for 5 minutes, then 95° C. for 10 min, followed by 40 cycles of 10 seconds at 95° C. and 20 seconds at 60° C. Viral load was quantitated against known standards by using ViiA™ 7 Software. Viral load in the supernatant from wells with treated cells were compared against viral load in supernatant from DMSO control wells (≥3 per plate).

Row | SMILES | AD38 Viability Normalized Result (cmpd/DMSO %) at 10 μM (AD38 cells) [%] | activity at 10 µM (HBV) [%]
1 | O=C(NCc1cnc(-c2ccc3[nH]ncc3c2)nc1)c1ccc2c(c1)NC(=O)c1ccccc1S2(=O)=O [Compound 790] | 103 | 1.7
2 | COc1ccc(Cc2ccc(CNC(=O)c3ccc4c(c3)NC(=O)c3ccccc3S4(=O)=O)cn2)cc1 [Compound 825-A, N-((6-(4-methoxybenzyl)pyridin-3-yl)methyl)-11-oxo-10, 11-dihydrodibenzo[b,f][1,4]thiazepine-8-carboxamide 5,5-dioxide] | 58 | 6.2
3 | O=C(NCc1cccnc1)c1ccc2c(c1)NC(=O)c1ccc(Cl)cc1S2 [Compound 543] | 24 | 1.2
4 | Nc1ncc(-c2ncc(CNC(=O)c3ccc4c(c3)NC(=O)c3ccccc3S4(=O)=O)cn2)cn1 [Compound 792] | 105 | 23.1
5 | O=C(NCc1cccnc1)c1ccc2c(c1)NC(=O)c1cc(Cl)ccc1S2 [Compound 540] | 52 | 0.6
6 | O=C(NCc1ccc(-c2ccc(O)cc2)nc1)c1ccc2c(c1)NC(=O)c1ccccc1S2(=O)=O [Compound 778] | 104 | 3.2
7 | O=C(NCCc1cccnc1)c1ccc2c(c1)NC(=O)c1ccccc1N2 [Compound 506] | 100 | 31.6
8 | CC1c2ccc(C(=O)NCc3cncnc3)cc2NC(=O)c2ccccc21 (stereo not drawn) [Compound 545] | 95 | 1.4
9 | O=C(NCc1cnc(-c2ccc(O)cc2F)nc1)c1ccc2c(c1)NC(=O)c1ccccc1S2(=O)=O [Compound 795] | 106 | 6.4
10 | O=C(NCc1cnc(-c2ccc(O)cc2)nc1)c1ccc2c(c1)NC(=O)c1ccccc1S2(=O)=O [Compound 788] | 111 | 1.9
11 | O=C(NCc1ccc(-c2ccc3[nH]ccc3c2)nc1)c1ccc2c(c1)NC(=O)c1ccccc1S2(=O)=O [Compound 779] | 87 | 0.5
12 | O=C(NCc1ccc(Cc2ccc(O)cc2)nc1)c1ccc2c(c1)NC(=O)c1ccccc1O2 [Compound 837, N-((6-(4-hydroxybenzyl)pyridin-3-yl)methyl)-11-oxo-10,11-dihydrodibenzo[b,f][1,4]oxazepine-8-carboxamide] | 108 | 0.9
13 | O=C(NCc1cncnc1)c1ccc2c(c1)NC(=O)c1ccccc1N2 [Compound 504] | 101 | 62.9
14 | O=C(NCc1nnc(-c2ccc(O)cc2)s1)c1ccc2c(c1)NC(=O)c1ccccc1O2 [Compound 739] | 108 | 62.2
15 | O=C(NCc1ccc(C(F)(F)F)nc1)c1ccc2c(c1)NC(=O)c1ccccc1S2(=O)=O [Compound 875] | 108 | 26.1
16 | O=C(NCc1cnc(-c2ccccc2CO)nc1)c1ccc2c(c1)NC(=O)c1ccccc1S2(=O)=O [Compound 844] | 103 | 10.2
17 | O=C(NCc1ccc(-c2cc(F)c(O)c(F)c2)nc1)c1ccc2c(c1)NC(=O)c1ccccc1S2(=O)=O [Compound 787] | 100 | 15.5
18 | O=C(NCc1cnc(C(F)(F)F)nc1)c1ccc2c(c1)NC(=O)c1ccccc1S2(=O)=O [Compound 876] | 101 | 65.5
19 | O=C(NCc1cnc(-c2ccc3[nH]cnc3c2)nc1)c1ccc2c(c1)NC(=O)c1ccccc1S2(=O)=O [Compound 791] | 100 | 2.2
20 | O=C(NCCc1ccccn1)c1ccc2c(c1)NC(=O)c1ccccc1N2 [Compound 505] | 103 | 48.2
21 | N#Cc1ccc(-c2ncc(CNC(=O)c3ccc4c(c3)NC(=O)c3ccccc3S4(=O)=O)cn2)cc1 [Compound 871, N-((2-(4-cyanophenyl)pyrimidin-5-yl)methyl)-11-oxo-10, 11-dihydrodibenzo[b,f][1,4]thiazepine-8-carboxamide 5,5-dioxide] | 96 | 1.3
22 | O=C(NCc1ccc(-c2ccc(O)c(F)c2)nc1)c1ccc2c(c1)NC(=O)c1ccccc1S2(=O)=O [Compound 786] | 105 | 5
23 | O=C(NCc1cccnc1)c1ccc2c(c1)NC(=O)c1ccccc1N2 [Compound 507] | 103 | 51.9
24 | COc1ccc(Cc2ccc(CNC(=O)c3ccc4c(c3)NC(=O)c3ccccc3O4)cn2)cc1 [Compound 837-A, N-((6-(4-methoxybenzyl)pyridin-3-yl)methyl)-11-oxo-10, 11-dihydrodibenzo[b,f][1, 4]oxazepine-8-carboxamide] | 105 | 5.6
25 | O=C(NCc1nnc(-c2ccc(O)cc2)s1)c1ccc2c(c1)NC(=O)c1ccccc1S2(=O)=O [Compound 807] | 96 | 0.9
26 | NC(=O)c1ccc(-c2ccc(CNC(=O)c3ccc4c(c3)NC(=O)c3ccccc3S4(=O)=O)nc2)cc1 [Compound 870, N-((5-(4-carbamoylphenyl)pyridin-2-yl)methyl)-11-oxo-10, 11-dihydrodibenzo[b,f][1,4]thiazepine-8-carboxamide 5,5-dioxide] | 106 | 82.7
27 | O=C(NCc1cncnc1)c1ccc2c(c1)NC(=O)c1cc(Cl)ccc1S2 [Compound 539] | 0 | 0.2
28 | O=C(NCc1cnc(-c2ccc3[nH]ccc3c2)nc1)c1ccc2c(c1)NC(=O)c1ccccc1S2(=O)=O [Compound 789] | 108 | 0.4
29 | O=C(NCc1ccc(-c2ccc3[nH]cnc3c2)nc1)c1ccc2c(c1)NC(=O)c1ccccc1S2(=O)=O [Compound 781] | 102 | 7.3
30 | Nc1ncc(-c2ccc(CNC(=O)c3ccc4c(c3)NC(=O)c3ccccc3S4(=O)=O)cn2)cn1 [Compound 782] | 108 | 25.4
